Biological target: T1, FamC1 (Fischerella ambigua, UniProt A0A076N4W8, N137A)
T1 construct: gene ambU4; recombinant; homodimer in crystal
Assay: X-ray crystallography, […] A
Details: Ca1 site empty, Ca2 bound; substrate-binding pocket; ligand came from the crystallization solution, not added on purpose

T1 sequence (A0A076N4W8 entry or part of it N137A): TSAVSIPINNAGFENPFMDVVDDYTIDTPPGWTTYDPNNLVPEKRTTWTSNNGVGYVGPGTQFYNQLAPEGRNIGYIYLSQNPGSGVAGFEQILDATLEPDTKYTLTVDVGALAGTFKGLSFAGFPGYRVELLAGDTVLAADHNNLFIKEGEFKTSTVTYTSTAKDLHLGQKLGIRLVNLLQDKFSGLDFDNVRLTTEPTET

N=C(N)NCCC[C@@H]1NC(=O)[C@H]2CCCN2C1=O [CI-4]
X-ray crystallography, 1.48 A: The N137A crystal was grown in the same crystallization condition and one molecule of CI-4
